Among the test systems are ACHN renal; LOX IMVI melanoma; MOLT-4 leukemia; NCI-H460 lung; NCI-H522 lung; RXF 393 renal; SF-295 CNS; OVCAR-5 ovarian; DU-145 prostate.
Common to all, as to assay: DTP human tumour cell line panel, 48 h

“And” between values parts separate entries of the source, which are not always exact repeats. Equal values may be shown once.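 All cell lines were grown in 96-well plates and treated with compound for 48 hours. At the GI50, growth is halved. At the TGI there is no net growth.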

Broadly, the GI50 is the concentration that inhibits growth by half. As usually defined, the TGI is the concentration at which net growth stops. Higher therefore signals lower sensitivity of the cells. `CC1CCC2c3c([nH]c4ccccc34)C3C(=O)N(c4ccccc4)C(=O)C3C2C1` (centres undefined): the GI50 with ACHN renal is 47.9 µM; with LOX IMVI melanoma it was 153 µM; in the assay on MOLT-4 leukemia, 44.7 µM; in the assay with SF-295 CNS it was 66.3 µM. Also, the total growth inhibition concentration (TGI) in the assay with ACHN renal is 224 µM; in the assay on LOX IMVI melanoma, over 250 µM; in the assay with MOLT-4 leukemia, 95.5 µM and 99.1 µM; with NCI-H460 lung it was over 250 µM; in the assay on NCI-H522 lung, over 250 µM; with RXF 393 renal, 33.7 µM. Also, the total growth inhibition concentration (TGI) in the assay with SF-295 CNS was over 250 µM.

As for `O=S(=O)(Cc1ccccc1)SCc1ccccc1`, the TGI in the assay on ACHN renal was over 100 µM; in the assay on LOX IMVI melanoma, 30.9 µM; in the assay on MOLT-4 leukemia, 14.3 µM; with NCI-H460 lung, over 83.8 µM; in the assay with NCI-H522 lung, 25.2 µM; with OVCAR-5 ovarian it was over 100 µM. Besides, the TGI amounted to 65.2 µM in the assay on RXF 393 renal and 65.7 µM in the assay on SF-295 CNS.

`CC1=C(C(=O)CC(=O)C(=O)Nc2ccccc2C)Sc2ccccc2N1`: the concentration for total growth inhibition (TGI) in the assay on ACHN renal is over 100 µM; in the assay on LOX IMVI melanoma, over 57.4 µM; in the assay with MOLT-4 leukemia, over 100 µM; in the assay with NCI-H460 lung it was over 56.2 µM; with NCI-H522 lung it was over 100 µM; in the assay with OVCAR-5 ovarian, over 100 µM. For the same compound, the TGI in the assay with RXF 393 renal and in the assay with SF-295 CNS was over 100 µM each time.

Take `CC(=O)c1c(O)c2c([nH]c1=O)CCCC2`: the TGI in the assay with ACHN renal is over 100 µM; in the assay on LOX IMVI melanoma, over 100 µM; with MOLT-4 leukemia, over 100 µM; with NCI-H460 lung, 30.5 µM; with RXF 393 renal, 67.6 µM; in the assay with SF-295 CNS, 39.7 µM.

Take `O=C(Nc1ccc(Br)cc1)Nc1cccc(Br)c1`: the GI50 in the assay on DU-145 prostate was 5.8 µM; with MOLT-4 leukemia it was 5.38 µM; with OVCAR-5 ovarian, over 100 µM; with RXF 393 renal, over 100 µM. The TGI with DU-145 prostate, in the assay on MOLT-4 leukemia, with OVCAR-5 ovarian and in the assay on RXF 393 renal was over 100 µM in each case.

For the compound `O=C(O)C1=C(C(=O)O)Oc2ccccc2O1`, the concentration for total growth inhibition (TGI) in the assay on ACHN renal, with LOX IMVI melanoma, in the assay with MOLT-4 leukemia, with NCI-H460 lung, with NCI-H522 lung and in the assay with OVCAR-5 ovarian was over 100 µM in each case. Besides, the concentration for total growth inhibition (TGI) with RXF 393 renal and with SF-295 CNS was over 100 µM each time.

Take `C/C(CC(=O)Nc1cccc(Cl)c1C)=N\N=C(N)N`: the TGI in the assay with ACHN renal, in the assay with LOX IMVI melanoma, in the assay on MOLT-4 leukemia, with NCI-H460 lung, in the assay on NCI-H522 lung and with OVCAR-5 ovarian was over 100 µM each time. Also, the TGI with RXF 393 renal and in the assay with SF-295 CNS was over 100 µM in each case.

Consider `NNC(=O)N/N=C1\CNC(=O)C(=O)C1c1nc2ccccc2s1` (centres undefined), for which the total growth inhibition concentration (TGI) in the assay on ACHN renal, in the assay on LOX IMVI melanoma, with NCI-H460 lung, in the assay with NCI-H522 lung, in the assay with OVCAR-5 ovarian and with RXF 393 renal was over 100 µM in each case. In addition, in the assay with SF-295 CNS, the total growth inhibition concentration (TGI) was over 100 µM.

As to `CN(C)CCNC(=O)c1cccc2cc3ccc4ccccc4c3nc12`, the concentration for total growth inhibition (TGI) with ACHN renal amounted to 0.0561 µM; in the assay with LOX IMVI melanoma, 0.256 µM; in the assay with MOLT-4 leukemia it was 0.0678 µM; in the assay on NCI-H460 lung, 0.163 µM; in the assay with NCI-H522 lung, 0.28 µM; in the assay with OVCAR-5 ovarian, 0.706 µM. For the same compound, the total growth inhibition concentration (TGI) in the assay on RXF 393 renal is 0.267 µM; in the assay on SF-295 CNS, 0.886 µM.

Turning to `Nc1nc(-c2ccccc2)cc(-c2cc(Cl)ccc2O)n1`, the TGI in the assay with ACHN renal is 72.3 µM; with LOX IMVI melanoma, over 100 µM; in the assay with MOLT-4 leukemia, over 100 µM; with NCI-H460 lung, over 100 µM; with NCI-H522 lung it was 99.7 µM; with OVCAR-5 ovarian it was over 100 µM. The TGI with RXF 393 renal and in the assay on SF-295 CNS was over 100 µM in each case.

Take `O=C1c2ccoc2C(=O)c2oc(=O)ccc21`: the TGI in the assay on ACHN renal was found to be 8.43 µM; in the assay on LOX IMVI melanoma, 10.7 µM; with NCI-H460 lung, 37.1 µM; in the assay on NCI-H522 lung it was 4.18 µM; with OVCAR-5 ovarian, 33.9 µM; with RXF 393 renal, 15.1 µM. In the assay on SF-295 CNS, this compound returned a total growth inhibition concentration (TGI) of 31.5 µM.

With `CC(C)=CC(=O)CC(=O)C(=O)NCCNC(=O)C(=O)CC(=O)C=C(C)C`, the total growth inhibition concentration (TGI) in the assay on ACHN renal, with LOX IMVI melanoma, in the assay with NCI-H460 lung, in the assay with OVCAR-5 ovarian, with RXF 393 renal and in the assay with SF-295 CNS was over 50 µM each time.

As for `c1ccc2c(c1)[O][Sn][O]2`, the GI50 in the assay with ACHN renal is 24.1 µg/mL; in the assay on LOX IMVI melanoma it was 27.8 µg/mL; with MOLT-4 leukemia it was 7.16 µg/mL; with NCI-H460 lung, 46 µg/mL; with NCI-H522 lung it was 2.03 µg/mL; in the assay with OVCAR-5 ovarian, over 150 µg/mL. Also, the GI50 in the assay with RXF 393 renal is 23.4 µg/mL; in the assay on SF-295 CNS, over 150 µg/mL. In addition, the TGI in the assay on ACHN renal is over 150 µg/mL; in the assay with LOX IMVI melanoma, 112 µg/mL; with MOLT-4 leukemia, over 150 µg/mL; with NCI-H460 lung it was over 150 µg/mL; in the assay on NCI-H522 lung it was 8.78 µg/mL; in the assay on OVCAR-5 ovarian, over 150 µg/mL. For the same compound, the values for the concentration for total growth inhibition (TGI) in the assay on RXF 393 renal and in the assay with SF-295 CNS were 120 µg/mL and over 150 µg/mL, respectively.

Take `Nc1ncnc2sc(Nc3ccccc3)nc12`: the TGI in the assay with ACHN renal, in the assay on LOX IMVI melanoma, in the assay with MOLT-4 leukemia, in the assay on NCI-H460 lung, with NCI-H522 lung and in the assay with OVCAR-5 ovarian was over 100 µM each time. Besides, in the assay with SF-295 CNS, the concentration for total growth inhibition (TGI) is over 100 µM.

As for `NC(=O)C(=O)Cc1nc2ccccc2s1`, the TGI in the assay on ACHN renal, in the assay on LOX IMVI melanoma, in the assay on MOLT-4 leukemia, in the assay with NCI-H460 lung, in the assay on NCI-H522 lung and with OVCAR-5 ovarian was over 100 µM each time. For the same compound, the TGI with RXF 393 renal and with SF-295 CNS was over 100 µM in each case.

Regarding `CC1(C)OC2OC(COC(=O)C(c3ccccc3)c3ccccc3)C3OC(C)(C)OC3C2O1` (centres undefined), the TGI with ACHN renal, in the assay on LOX IMVI melanoma, in the assay with MOLT-4 leukemia, with NCI-H460 lung, in the assay on NCI-H522 lung and with OVCAR-5 ovarian was over 100 µM throughout. Besides, the TGI in the assay on RXF 393 renal and with SF-295 CNS was over 100 µM throughout. Also, the values for the GI50 in the assay on MOLT-4 leukemia and in the assay with OVCAR-5 ovarian were 3.76 µM and over 100 µM, respectively.

The values above are taken from PubChem BioAssay (NCI).
